Measurements reported in US6737383B1, “Herbicidal oxadiazolidines” (priority 1999, dated 2004).

Experiments:
bamyardgrass = experiment: Test B flood test barnyardgrass; type: in vivo, Echinochloa crus-galli
Method in brief: (§1)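 Flood test on plants grown to the 2-leaf stage; treated plants kept in greenhouse twelve to sixteen days, then visually rated against controls on a 0 (no effect) to 10 (complete control) scale.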

surinam grass = experiment: Test B pre/postemergence surinam grass; type: in vivo, Brachiaria decumbens
Method in brief: (§2)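 Test chemicals in a non-phytotoxic solvent mixture with surfactant were sprayed preemergence onto planted seeds and postemergence onto plants 2 to 18 cm tall (1- to 4-leaf stage). After twelve to sixteen days in a greenhouse, injury was visually rated against untreated controls from 0 (no effect) to 10 (complete control).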

corn = experiment: Test B pre/postemergence corn; type: in vivo, Zea mays
Method in brief: as §2

sugar beet = experiment: Test B pre/postemergence sugar beet; type: in vivo, Beta vulgaris
Method in brief: as §2

blackgrass = experiment: Test B pre/postemergence blackgrass; type: in vivo, Alopecurus myosuroides
Method in brief: as §2

giant foxtail = experiment: Test B pre/postemergence giant foxtail; type: in vivo, Setaria faberii
Method in brief: as §2

pigweed = experiment: Test B pre/postemergence pigweed; type: in vivo, Amaranthus retroflexus
Method in brief: as §2

smallflower flatsedge = experiment: Test B flood test smallflower flatsedge; type: in vivo, Cyperus difformis
Method in brief: as §1

soybean = experiment: Test B pre/postemergence soybean; type: in vivo, Glycine max
Method in brief: as §2

purple nutsedge = experiment: Test B pre/postemergence purple nutsedge; type: in vivo, Cyperus rotundus
Method in brief: as §2

rice = experiment: Test B flood test rice; type: in vivo, Oryza sativa
Method in brief: as §1

cocklebur = experiment: Test B pre/postemergence cocklebur; type: in vivo, Xanthium strumarium
Method in brief: as §2

wheat = experiment: Test B pre/postemergence wheat; type: in vivo, Triticum aestivum
Method in brief: as §2

rape = experiment: Test B pre/postemergence rape; type: in vivo, Brassica napus
Method in brief: as §2

crabgrass = experiment: Test B pre/postemergence crabgrass; type: in vivo, Digitaria sanguinalis
Method in brief: as §2

duck salad = experiment: Test B flood test duck salad; type: in vivo, Heteranthera limosa
Method in brief: as §1

[1] = Rate 62 g/ha, flood test species, Pre-emergence, visual evaluation after twelve to sixteen days
[2] = Rate 125 g/ha, under heading Pre-emergence, flood test species, visual evaluation after twelve to sixteen days
[3] = Rate 250 g/ha, Pre-emergence (flood test species), scale 0 to 10, 0 is no effect, 10 is complete control
[4] = Rate 500 g/ha, Pre-emergence section of Table B, 0 to 10 scale (0 no effect, 10 complete control)
[5] = Postemergence, Rate 62 g/ha, scale 0 to 10, 0 is no effect, 10 is complete control
[6] = Postemergence, Rate 125 g/ha, scale of 0 to 10 where 0 is no effect and 10 is complete control
[7] = Postemergence, Rate 250 g/ha, scale of 0 to 10, 0 is no effect, 10 is complete control
[8] = Postemergence, Rate 500 g/ha, scale of 0 to 10 where 0 is no effect and 10 is complete control
[9] = Preemergence, Rate 62 g/ha, scale 0 to 10 (0 no effect, 10 complete control)
[10] = Preemergence, Rate 125 g/ha, scale of 0 to 10 where 0 is no effect and 10 is complete control
[11] = Preemergence, Rate 500 g/ha, scale of 0 to 10 where 0 is no effect and 10 is complete control

CC(C)N(C(=O)n1oc(=O)n(CC2=NOCCC2)c1=O)c1ccc(F)cc1F [Compound 602]
Plant response rating, Barnyardgrass (0 to 10 scale, 0 is no effect, 10 is complete control) (bamyardgrass; [1]): 0 | Barnyardgrass plant response rating (0 to 10 scale, 0 is no effect, 10 is complete control) (bamyardgrass; [2]): 0 | Barnyardgrass plant response rating (bamyardgrass; [3]): 0 | Barnyardgrass plant response rating (bamyardgrass; [4]): 0 | Plant response rating, B. signalgrass (surinam grass; [5]): 0 | Plant response rating, B. signalgrass (surinam grass; [6]): 2 | B. signalgrass plant response rating (surinam grass; [7]): 5 | Plant response rating, B. signalgrass (surinam grass; [8]): 7 | B. signalgrass plant response rating (surinam grass; [9]): 0 | B. signalgrass plant response rating (surinam grass; [10]): 4 | B. signalgrass plant response rating (0 to 10 scale, 0 is no effect, 10 is complete control) (surinam grass; Preemergence, Rate 250 g/ha): 7 | B. signalgrass plant response rating (surinam grass; [11]): 7 | Plant response rating, Corn (corn; [5]): 0 | Plant response rating, Corn (corn; [6]): 0 | Corn plant response rating (corn; [7]): 0 | Plant response rating, Corn (corn; [8]): 0 | Corn plant response rating (corn; [9]): 0 | Corn plant response rating (corn; [10]): 0 | Corn plant response rating (0 to 10 scale) (corn; Preemergence, Rate 250 g/ha): 0 | Plant response rating, Corn (corn; [11]): 2 | Plant response rating, Sugarbeets (sugar beet; [5]): 0 | Plant response rating, Sugarbeets (sugar beet; [6]): 0 | Sugarbeets plant response rating (sugar beet; [7]): 0 | Plant response rating, Sugarbeets (sugar beet; [8]): 0 | Sugarbeets plant response rating (sugar beet; [9]): 0 | Sugarbeets plant response rating (sugar beet; [10]): 2 | Plant response rating, Sugarbeets (sugar beet; [11]): 5 | Plant response rating, Blackgrass (blackgrass; [5]): 4 | Plant response rating, Blackgrass (blackgrass; [6]): 6 | Blackgrass plant response rating (blackgrass; [7]): 8 | Plant response rating, Blackgrass (blackgrass; [8]): 9 | Blackgrass plant response rating (blackgrass; [9]): 0 | Blackgrass plant response rating (blackgrass; [10]): 4 | Blackgrass plant response rating (0 to 10 scale) (blackgrass; Preemergence, Rate 250 g/ha): 6 | Blackgrass plant response rating (blackgrass; [11]): 9 | Plant response rating, Giant foxtail (giant foxtail; [5]): 1 | Plant response rating, Giant foxtail (giant foxtail; [6]): 8 | Giant foxtail plant response rating (giant foxtail; [7]): 9 | Plant response rating, Giant foxtail (giant foxtail; [8]): 9 | Giant foxtail plant response rating (giant foxtail; [9]): 9 | Giant foxtail plant response rating (giant foxtail; [10]): 9 | Plant response rating, Giant foxtail (giant foxtail; [11]): 10 | Plant response rating, Redroot pigweed (pigweed; [5]): 2 | Plant response rating, Redroot pigweed (pigweed; [6]): 2 | Redroot pigweed plant response rating (pigweed; [7]): 3 | Plant response rating, Redroot pigweed (pigweed; [8]): 6 | Redroot pigweed plant response rating (pigweed; [9]): 2 | Redroot pigweed plant response rating (pigweed; [10]): 7 | Plant response rating, Redroot pigweed (pigweed; [11]): 8 | Plant response rating, S. Flatsedge (0 to 10 scale, 0 is no effect, 10 is complete control) (smallflower flatsedge; [1]): 0 | S. Flatsedge plant response rating (0 to 10 scale, 0 is no effect, 10 is complete control) (smallflower flatsedge; [2]): 0 | S. Flatsedge plant response rating (smallflower flatsedge; [3]): 0 | S. Flatsedge plant response rating (smallflower flatsedge; [4]): 0 | Plant response rating, Soybean (soybean; [5]): 3 | Plant response rating, Soybean (soybean; [6]): 3 | Soybean plant response rating (soybean; [7]): 5 | Plant response rating, Soybean (soybean; [8]): 7 | Soybean plant response rating (soybean; [10]): 0 | Plant response rating, Soybean (soybean; [11]): 0 | Plant response rating, Nutsedge (purple nutsedge; [5]): 0 | Plant response rating, Nutsedge (purple nutsedge; [6]): 0 | Nutsedge plant response rating (purple nutsedge; [7]): 0 | Plant response rating, Nutsedge (purple nutsedge; [8]): 0 | Nutsedge plant response rating (purple nutsedge; [9]): 0 | Nutsedge plant response rating (purple nutsedge; [10]): 0 | Plant response rating, Nutsedge (purple nutsedge; [11]): 0 | Plant response rating, Rice (0 to 10 scale, 0 is no effect, 10 is complete control) (rice; [1]): 0 | Rice plant response rating (0 to 10 scale, 0 is no effect, 10 is complete control) (rice; [2]): 0 | Rice plant response rating (rice; [3]): 0 | Rice plant response rating (rice; [4]): 0 | Plant response rating, Cocklebur (cocklebur; [5]): 0 | Plant response rating, Cocklebur (cocklebur; [6]): 0 | Cocklebur plant response rating (cocklebur; [7]): 0 | Plant response rating, Cocklebur (cocklebur; [8]): 0 | Cocklebur plant response rating (cocklebur; [9]): 0 | Cocklebur plant response rating (cocklebur; [10]): 0 | Cocklebur plant response rating (0 to 10 scale) (cocklebur; Preemergence, Rate 250 g/ha): 0 | Plant response rating, Cocklebur (cocklebur; [11]): 0 | Plant response rating, Wheat (wheat; [5]): 0 | Plant response rating, Wheat (wheat; [6]): 0 | Wheat plant response rating (wheat; [7]): 0 | Plant response rating, Wheat (wheat; [8]): 0 | Wheat plant response rating (wheat; [9]): 0 | Wheat plant response rating (wheat; [10]): 0 | Plant response rating, Wheat (wheat; [11]): 0 | Plant response rating, Rape (rape; [5]): 0 | Plant response rating, Rape (rape; [6]): 0 | Rape plant response rating (rape; [7]): 0 | Plant response rating, Rape (rape; [8]): 0 | Rape plant response rating (rape; [9]): 0 | Rape plant response rating (rape; [10]): 0 | Plant response rating, Rape (rape; [11]): 3 | Plant response rating, Crabgrass (crabgrass; [5]): 2 | Plant response rating, Crabgrass (crabgrass; [6]): 4 | Crabgrass plant response rating (crabgrass; [7]): 4 | Plant response rating, Crabgrass (crabgrass; [8]): 9 | Crabgrass plant response rating (crabgrass; [9]): 7 | Crabgrass plant response rating (crabgrass; [10]): 8 | Plant response rating, Crabgrass (crabgrass; [11]): 10 | Plant response rating, Ducksalad (0 to 10 scale, 0 is no effect, 10 is complete control) (duck salad; [1]): 0 | Ducksalad plant response rating (0 to 10 scale, 0 is no effect, 10 is complete control) (duck salad; [2]): 0 | Ducksalad plant response rating (duck salad; [3]): 0 | Ducksalad plant response rating (duck salad; [4]): 0
